From PubChem BioAssay AID210 (DTP/NCI, 2004) come the findings set out here.

Toxic doses and inconclusive results are not listed.

The experiment relates to CD2F1 mice, ip Colon 26 adenocarcinoma, median survival T/C. Nature of the experiment: NCI In Vivo Anticancer Drug Screen. Data for tumor model Colon 26 Adenocarcinoma (intraperitoneal) in CD2F1 (CDF1) mice. The note with it: endpoint: median survival time, higher = longer survival. As for the experimental part:
The antitumor activity of compounds was measured in mice bearing transplantable tumors. Survival or tumor size were measured and the results are expressed as the measurement made in the treated group (T) divided by the measurement made in the vehicle treated control group (C). The tumor model used in this assay is Colon 26 Adenocarcinoma (intraperitoneal) in CD2F1 (CDF1) mice

[1] abbreviates: dose: 100.0 mg/kg/injection, schedule: Q04DX003 (ip), vehicle: suspension in saline.
Where [2] appears, read: dose: 200.0 mg/kg/injection, schedule: Q04DX003 (ip), vehicle: suspension in saline.
Setting [3] is: dose: 400.0 mg/kg/injection, schedule: Q04DX003 (ip), vehicle: suspension in saline.

On to `CCOC(=O)C1C2OC(=O)C(C(=O)C2CN(CCCl)CCCl)C1C1CC=C(CC2=CCC(C3C4C(=O)OC(C(CN(CCCl)CCCl)C4=O)C3C(=O)OCC)CC2)CC1` (centres undefined), for which the T/C by setting is: (dose: 100.0 mg/kg/injection, schedule: Q04DX003 (ip), vehicle: Klucel (hydroxypropylcellulose) (HPC)) 216 % of control; (dose: 200.0 mg/kg/injection, schedule: Q04DX003 (ip), vehicle: Klucel (hydroxypropylcellulose) (HPC)) 232 % of control.

In the case of `N[C@H](C(=O)O)[C@@H]1CC(Cl)=NO1`, the T/C is 102 % of control (dose: 1.0 mg/kg/injection, schedule: Q04DX003 (ip), vehicle: saline); 105 % of control (dose: 2.0 mg/kg/injection, schedule: Q04DX003 (ip), vehicle: saline); 107 % of control (dose: 4.0 mg/kg/injection, schedule: Q04DX003 (ip), vehicle: saline); 103 % of control (dose: 8.0 mg/kg/injection, schedule: Q04DX003 (ip), vehicle: saline); 110 % of control (dose: 16.0 mg/kg/injection, schedule: Q04DX003 (ip), vehicle: saline); 107 % of control (dose: 32.0 mg/kg/injection, schedule: Q04DX003 (ip), vehicle: saline).

`CN(Cc1cnc2nc(N)nc(N)c2n1)c1ccc(C(=O)N[C@@H](CCC(=O)O)C(=O)O)cc1`: the T/C by setting is: (dose: 30.0 mg/kg/injection, schedule: Q07DX003 (ip), vehicle: saline) 105 % of control; (dose: 44.0 mg/kg/injection, schedule: Q07DX003 (ip), vehicle: saline) 88 % of control; (dose: 44.0 mg/kg/injection, schedule: Q07DX003 (ip), vehicle: sodium bicarbonate) 121 % of control; (dose: 63.0 mg/kg/injection, schedule: Q07DX003 (ip), vehicle: saline) 93 % of control.

In the case of `CC(C)CCCCCCCCCCCCC(=O)NCC(=O)NC1C(O)C(O)C(Nc2ncnc3nc[nH]c23)OC1C(O)CO` (centres undefined), the T/C (dose: 0.5 mg/kg/injection, schedule: Q04DX003 (ip), vehicle: Klucel (hydroxypropylcellulose) (HPC)) is 91 % of control; the T/C (dose: 1.0 mg/kg/injection, schedule: Q04DX003 (ip), vehicle: Klucel (hydroxypropylcellulose) (HPC)) was 97 % of control; the T/C (dose: 2.0 mg/kg/injection, schedule: Q04DX003 (ip), vehicle: Klucel (hydroxypropylcellulose) (HPC)) is 101 % of control; the T/C (dose: 4.0 mg/kg/injection, schedule: Q04DX003 (ip), vehicle: Klucel (hydroxypropylcellulose) (HPC)) is 103 % of control.

For `COc1cc(NS(C)(=O)=O)ccc1Nc1c2ccccc2nc2ccccc12`, the T/C is 111 % of control (dose: 0.5 mg/kg/injection, schedule: Q04DX002 (ip), vehicle: other); 98 % of control (dose: 0.5 mg/kg/injection, schedule: Q04DX003 (ip), vehicle: other); 119 % of control (dose: 1.0 mg/kg/injection, schedule: Q04DX002 (ip), vehicle: other); 112 % of control (dose: 1.0 mg/kg/injection, schedule: Q04DX003 (ip), vehicle: other); 117 % of control (dose: 2.0 mg/kg/injection, schedule: Q04DX003 (ip), vehicle: other); 151 % of control (dose: 4.0 mg/kg/injection, schedule: Q04DX002 (ip), vehicle: other). The T/C (dose: 8.0 mg/kg/injection, schedule: Q04DX002 (ip), vehicle: other) was 185 % of control; the T/C (dose: 8.0 mg/kg/injection, schedule: Q04DX003 (ip), vehicle: other) is 156 % of control; the T/C (dose: 16.0 mg/kg/injection, schedule: Q04DX002 (ip), vehicle: other) is 240 % of control; the T/C (dose: 16.0 mg/kg/injection, schedule: Q04DX003 (ip), vehicle: other) is 170 % of control.

Take `COc1cccc2c1C(=O)c1c(O)c3c(c(O)c1C2=O)C[C@@](O)(/C(CO)=N/NC(=O)c1ccc(Cl)c(Cl)c1)C[C@@H]3OC1CC(N)C(O)C(C)O1` (some centres undefined): the T/C is 92 % of control (dose: 16.0 mg/kg/injection, schedule: Q07DX002 (iv), vehicle: saline); 109 % of control (dose: 24.0 mg/kg/injection, schedule: Q07DX002 (iv), vehicle: saline); 103 % of control (dose: 36.0 mg/kg/injection, schedule: Q07DX002 (iv), vehicle: saline).

Consider `Nc1n[nH]c(N)n1`, for which the T/C (dose: 40.0 mg/kg/injection, schedule: Q04DX003 (ip), vehicle: saline) is 105 % of control; the T/C (dose: 80.0 mg/kg/injection, schedule: Q04DX003 (ip), vehicle: saline) was 96 % of control; the T/C under setting [1] was 95 % of control; the T/C (dose: 160.0 mg/kg/injection, schedule: Q04DX003 (ip), vehicle: saline) was 112 % of control; the T/C under setting [2] was 104 % of control; the T/C (dose: 320.0 mg/kg/injection, schedule: Q04DX003 (ip), vehicle: saline) is 106 % of control. For the same molecule, the T/C was 105 % of control under setting [3]; 108 % of control (dose: 800.0 mg/kg/injection, schedule: Q04DX003 (ip), vehicle: suspension in saline); 100 % of control (dose: 1600.0 mg/kg/injection, schedule: Q04DX003 (ip), vehicle: suspension in saline).

For `CCOC(=O)c1c[nH]c2oc(/C=N/N3CC(CN4CCOCC4)OC3=O)cc2c1=O` (centres undefined), the T/C reads like this: (dose: 12.5 mg/kg/injection, schedule: Q04DX003 (ip), vehicle: suspension in saline) 97 % of control; (dose: 25.0 mg/kg/injection, schedule: Q04DX003 (ip), vehicle: suspension in saline) 90 % of control; (dose: 50.0 mg/kg/injection, schedule: Q04DX003 (ip), vehicle: suspension in saline) 96 % of control; under setting [1], 90 % of control; under setting [2], 101 % of control; under setting [3], 101 % of control.
